Measured values from article PMC6150271, “‘Click Chemistry’ Synthesis of Novel Natural Product-Like Caged Xanthones Bearing a 1,2,3-Triazole Moiety with Improved Druglike Properties as Orally Active Antitumor Agents” (Molecules : A Journal of Synthetic Chemistry and Natural …, 2017).
Converted amounts (≈) assume the structure as drawn. Read-outs that look alike come from different tables or passages of the source. Marks after values point to notes of the source that are not given here.

Tests used:
U2OS cells = experiment: MTT antiproliferative assay, U2OS; format: cell-based; details: Homo sapiens, 72 h
[1] = test system: human colon carcinoma HCT-116 cell line; experiment: MTT antiproliferative assay, HCT116; format: cell-based; details: 72 h
Method: (§1) The antiproliferative activity of the ten synthesized caged xanthone derivatives, as well as the lead compound DDO-6101 and GA were assessed with the 3-(4,5-dimethylthiazol-2-yl)-2,5-diphenyltetrazolium bromide (MTT) assay, as previously reported, against six human cancer cell lines, including the human lung carcinoma A549 cell line, taxol-resistant A549 cell line (A549/taxol), cisplatin-resistant A549 cell line (A549/cisplatin), the human hepatocellular carcinoma HepG2 cell line, the human colon carcinoma HCT-116 cell line, and the human glioblastoma U251 cell line. DDO-6101 and GA were used as positive controls for the in vitro assay.
(§2) Cancer cell lines were obtained from Cell Bank of Shanghai, Chinese Academy of Sciences. Cells were cultured in 90% RPMI 1640 medium (GIBCO, Invitrogen Corporation, New York, NY, USA) supplemented with 10% fetal bovine serum (Sijiqing Biotechnology Co., Hangzhou, China), 100 U/mL benzyl penicillin, and 100 μg/mL streptomycin in a humidified environment with 5% CO2 at 37 °C. All the tested compounds were dissolved in DMSO at a concentration of 0.01 mol/L and stored at −4 °C.
(§3) The inhibition of tumour cell growth was measured by a modified tetrazolium (MTT) salt assay. Cells were cultured in a 96-well plate and treated with culture medium alone or different concentrations of the compounds. The cells were incubated for 72 h, and then the MTT assay reagent was added. After a 4 h incubation, the formazan product was quantitated at 570 nm. The IC50 values (the concentrations that gave rise to 50% inhibition of cell viability) were calculated using GraphPad Prism 6 using a variable slope (four parameters).

[2] = test system: cisplatin-resistant A549 cell line (A549/cisplatin); experiment: MTT antiproliferative assay, A549/cisplatin; format: cell-based; details: Homo sapiens, 72 h
Method: as §1, §2, §3

[3] = Aqueous solubility by HPLC; details: thermodynamic from solid
Text: (§4) In parallel with the in vitro antitumor activity testing, the physicochemical properties of the target caged xanthone derivatives were theoretically predicted and experimentally determined in an effort to identify potential druglike compounds prior to the time-consuming and costly development and optimization of derivatives that may ultimately fail in efficacy experiments in vivo. The partition coefficient (logD) was experimentally determined on a Gemini Profiler instrument (pION, Inc., Woburn, MA, USA) by a potentiometric titration method. The polar surface area (PSA), as well as intestinal absorption level, were theoretically predicted by Accelrys Discovery Studio 4.0 (BIOVIA, San Diego, CA, USA) using the ADMET protocol. […] The permeability coefficient (Pe) was determined using a standard parallel artificial membrane permeability assay (PAMPA) on a PAMPA Explorer instrument (pION).
(§5) A HPLC system with an ultraviolet (UV) detector was used to detect the solubility of the compounds. The optimal wavelength was 290 nm. Ethanol/water (85:15) was an efficient eluent at a flow rate of 0.5 mL/min. The compounds were stirred in deionized water overnight to maximize the retention of the compounds in solution. Then, the solutions were filtered and the supernatant was used as a fluid sample for HPLC detection. The permeability (Pe) of the compounds was tested with the help of a standard PAMPA (pION). PAMPA was performed on a PAMPA Explorer instrument (pION) with the PAMPA Explorer command software (Version 3.7.4.1). The compounds were diluted to 10 mM with the system solution buffer (pH 7.4). Then, 150 μL of the diluted compound solution was transferred to a UV plate, and the UV spectrum was collected and used as a reference. Then, paint the membrane with 5 μL of gastrointestinal tract (GIT) lipid. The acceptor chamber was filled with 200 μL of acceptor solution buffer, and the donor chamber was filled with 200 μL of diluted compound solution. The PAMPA sandwich was assembled and left at 25 °C for 4 h. The UV spectra (240–500 nm) from the donor and the acceptor were collected. The permeability coefficient was calculated with the PAMPA Explorer Command software (Version 3.7.4.1) based on the area under the curve (AUC) of the reference plate, the donor plate, and the acceptor plate. The permeability coefficient of the compound was tested for four times, and the data are shown as the average values.

[4] = test system: human lung carcinoma A549 cell line; experiment: MTT antiproliferative assay, A549; format: cell-based; details: Homo sapiens, A549; MTT, 72 h
Method: as §1, §2, §3

[5] = logD by potentiometric titration (Gemini Profiler); format: physicochemical; details: measured on Gemini Profiler instrument (pION); for logD: pH 7.4, read-out: Log D 7.4
[6] = test system: human hepatocellular carcinoma HepG2 cell line; experiment: MTT antiproliferative assay, HepG2; format: cell-based; details: 72 h
Method: as §1, §2, §3

[7] = test system: taxol-resistant A549 cell line (A549/taxol); experiment: MTT antiproliferative assay, A549/taxol; format: cell-based; details: Homo sapiens
Method: as §1, §2, §3

[8] = Parallel artificial membrane permeability assay (PAMPA)
Text: as §4
as §5, with “The PAMPA sandwich was assembled and left at 25 °C for 4 h.” left out

[9] = test system: lung cancer A549 transplanted mouse model; experiment: In vivo tumor growth inhibition, intravenous administration; parameters: species or system Kunming mice; details: 20 mg/kg
Method: The lung cancer A549 transplanted mouse model was employed. DDO-6101 and antitumor drug 5-fluorouracil (5-FU) were also tested for comparison.
Kunming mice with body weights of 18–22 g were transplanted with lung cancer A549 cells according to protocols of transplant tumor research, as previously reported. Twenty-four hours after tumor transplantation, animals were weighed and randomly divided into five groups. All test drugs were given […] 24 h after tumor transplantation. The treated groups were intravenously injected or administered per os different doses of test compounds, respectively. The negative control group received 0.9% normal saline. Treatments were conducted at a frequency of one dose per two days for the intravenous group or one dose per day for the per os group for two or one week, respectively. All animals were sacrificed 24 h after the final treatment. All data are presented as mean ± SD and the statistical significance was evaluated by t-test.

[10] = A549/Taxol, MTT, 72 h, read-out: IC50 A549/Taxol

| SMILES | IC50 (U2OS cells) | IC50 [1] | IC50 [2] | solubility ([3]; deionized water) | IC50 [4] | logD [5] | IC50 [6] | melting point | IC50 [7, 10] | Papp at 4 h, 10 mM ([8]; pH 5) | Papp at 4 h, 10 mM ([8]; pH 6.2) | Papp at 4 h, 10 mM ([8]; pH 7.4) | further results |
| --- | --- | --- | --- | --- | --- | --- | --- | --- | --- | --- | --- | --- | --- |
| CC(C)=CCC12OC(C)(C)C3CC(C=C4C(=O)c5c(OCc6cn(CCCN7CCOCC7)nn6)cccc5OC431)C2=O (stereo not drawn) [Compound 8h] | 730 ± 70 nM | 950 ± 120 nM | 360 ± 40 nM | 3700 µM (≈ 2180 µg/mL) | 1030 ± 60 nM | 0.9 | 3070 ± 130 nM | 143 to 145 °C | 550 ± 80 nM | 40 ± 0.1 ×10⁻⁶ cm/s | 58 ± 6.1 ×10⁻⁶ cm/s | 72.6 ± 0.1 ×10⁻⁶ cm/s | IC50 ([7]; range over both resistant A549 lines and both compounds, read-out: IC50 values, taxol-resistant and cisplatin-resistant A549 cell lines): 330 to 550 nM |
| CC(C)=CCC[C@]1(C)C=Cc2c(O)c3c(c(CC=C(C)C)c2O1)O[C@]12C(=C[C@@H]4C[C@H]1C(C)(C)O[C@@]2(C/C=C(/C)C(=O)O)C4=O)C3=O [GA, Gambogic acid, reference compound] | 4670 ± 110 nM | 340 ± 80 nM | 2500 ± 60 nM | – | – | – | – | – | 290 ± 40 nM | – | – | – | solubility ([3]; water): < 5 µM; Log D 7.4 [5]: 3.6; Pe range ([8]; PAMPA, 4 h, 10 mM): 0.9–2.3 × 10^–6 cm/s; Papp at 4 h, 10 mM ([8]; PAMPA, pH 5): 0.9 ± 0.5 ×10⁻⁶ cm/s; Pe pH=6.2 ([8]; pH 6.2): 1.8±0.2 10-6 cm/s; Pe pH=7.4 ([8]; pH 7.4): 2.3±0.3 10-6 cm/s |
| O=c1[nH]cc(F)c(=O)[nH]1 [Compound 5-FU, 5-fluorouracil, reference compound] | – | – | – | – | – | – | – | – | – | – | – | – | Body Weight Pre-Dose ([9]; pre-dose): 20.25 ± 1.27 g; Body Weight After-Dose ([9]; two weeks): 24.43 ± 2.62 g; Inhibitory Rate ([9]; two weeks): 64.71%; Weight of Tumor ([9]; two weeks): 0.48 ± 0.17 ^b g |
| CC(C)=CCC12OC(C)(C)C3CC(C=C4C(=O)c5c(OCc6cn(CCCN7CCCC7)nn6)cccc5OC431)C2=O (stereo not drawn) [Compound 8d] | 3050 ± 70 nM | 1020 ± 30 nM | 890 ± 240 nM | 1920 µM (≈ 1100 µg/mL) | 2620 ± 40 nM | 1.6 | 4480 ± 290 nM | 144 to 146 °C | 1700 ± 120 nM | 15.4 ± 2.1 ×10⁻⁶ cm/s | 52.8 ± 1.6 ×10⁻⁶ cm/s | 66.4 ± 8.4 ×10⁻⁶ cm/s | – |
| CC(C)NCC(O)COc1cccc2ccccc12 (stereo not drawn) [Propranolol, reference compound] | – | – | – | – | – | – | – | – | – | – | – | – | Pe pH=7.4 ([8]; pH 7.4): 127.5±15.8 10-6 cm/s; Pe pH=7.4 ([8]; pH 7.4, listed as propranolol): 127.5 10-6 cm/s |
| CC(C)=CCC12OC(C)(C)C3CC(C=C4C(=O)c5c(OCc6cn(CCN(C)C)nn6)cccc5OC431)C2=O (stereo not drawn) [Compound 8a] | 2220 ± 90 nM | 1640 ± 260 nM | 1480 ± 100 nM | 1120 µM (≈ 597 µg/mL) | 1950 ± 400 nM | 2.1 | 2120 ± 410 nM | 156 to 158 °C | 1220 ± 210 nM | 27.9 ± 3.3 ×10⁻⁶ cm/s | 58.8 ± 2.1 ×10⁻⁶ cm/s | 91.4 ± 9.8 ×10⁻⁶ cm/s | – |
| CC(C)=CCC12OC(C)(C)C3CC(C=C4C(=O)c5c(OCc6cn(CCCN(C)C)nn6)cccc5OC431)C2=O (stereo not drawn) [Compound 8b] | 2730 ± 50 nM | 2270 ± 50 nM | 1660 ± 110 nM | 1540 µM (≈ 842 µg/mL) | 2620 ± 200 nM | 1.8 | 1360 ± 160 nM | 133 to 136 °C | 1300 ± 80 nM | 16.3 ± 1.2 ×10⁻⁶ cm/s | 41.7 ± 3.2 ×10⁻⁶ cm/s | 76.1 ± 6.4 ×10⁻⁶ cm/s | – |
| CC(C)=CCC12OC(C)(C)C3CC(C=C4C(=O)c5c(OCc6cn(CCN7CCCCC7)nn6)cccc5OC431)C2=O (stereo not drawn) [Compound 8e] | 4660 ± 30 nM | 2140 ± 180 nM | 1290 ± 480 nM | 560 µM (≈ 321 µg/mL) | 2170 ± 120 nM | 2.9 | 4850 ± 390 nM | 173 to 176 °C | 2030 ± 110 nM | 47.8 ± 4.7 ×10⁻⁶ cm/s | 57.2 ± 1.4 ×10⁻⁶ cm/s | 78.2 ± 8.8 ×10⁻⁶ cm/s | Pe range ([8]; range under different pH from 5.0 to 7.4): 47.0–78.2 × 10^–6 cm/s |
| CC(C)=CCC12OC(C)(C)C3CC(C=C4C(=O)c5c(OCc6cn(CCN7CCN(C)CC7)nn6)cccc5OC431)C2=O (stereo not drawn) [Compound 8i] | 9510 ± 1520 nM | 6150 ± 860 nM | 780 ± 80 nM | 3220 µM (≈ 1890 µg/mL) | 3330 ± 490 nM | 1 | 5350 ± 230 nM | 171 to 175 °C | 2120 ± 90 nM | 11.3 ± 0.6 ×10⁻⁶ cm/s | 41.5 ± 1.3 ×10⁻⁶ cm/s | 67.5 ± 4.2 ×10⁻⁶ cm/s | – |
